In patent US12265087B2, “Olfactory receptor as microglia marker and use thereof” (DAEGU GYEONGBUK INSTITUTE OF SCIENCE AND TECHNOLOGY, priority 2019, dated 2025):
Values belong to the compound of their own block, whether it stands above or below them.

Assays:
[1] = molecular target: T1, Olfr110 (Mus musculus, UniProt A2RT31); experiment: Luciferase assay in Hana3A cells transfected with Olfr110; type: cell-based; conditions: for binding to Olfr110: furan derivatives; for reactivity with Olfr110 (relative luciferase activity): Hana3A cells
T1 construct: Full-length odorant receptor genes from mouse and human genomic DNAs were amplified using appropriate primers; Lucy (N); Flag (N); Rho (N); expressed in transfected cells; host or cells: Hana3A cells, co-transfected with RTP1S, pCRELuc and pRL-SV40
T1 sequence (A2RT31 1-317): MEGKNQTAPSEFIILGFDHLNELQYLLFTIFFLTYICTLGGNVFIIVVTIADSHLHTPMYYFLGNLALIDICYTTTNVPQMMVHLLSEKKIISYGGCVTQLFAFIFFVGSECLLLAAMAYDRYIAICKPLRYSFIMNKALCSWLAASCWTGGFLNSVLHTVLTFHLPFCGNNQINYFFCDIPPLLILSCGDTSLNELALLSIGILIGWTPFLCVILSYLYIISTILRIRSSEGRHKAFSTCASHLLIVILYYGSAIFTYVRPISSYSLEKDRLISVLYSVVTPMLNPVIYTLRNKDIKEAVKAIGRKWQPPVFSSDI
Protocol: (§1) A Dual-Glo luciferase assay system (#E2940; Promega) was used for OR ligand screening. More specifically, Hana3A cells were seeded in white polystyrene 96-well plates (#353296; BD Biosciences) one day before transfection. pCRELuc (1 μg; #219076; Agilent Technologies), pRL-SV40 (1 μg; #E2231; Promega), RTP1S (1 μg), and OR (6 μg; or Mock) vectors were transfected for 24 hours in each plate. Analysis was performed using Lipofectamine 2000 (#11668-019; Thermo Fisher Scientific) according to the manufacturer's protocols. Transfected cells were stimulated at 37° C. for 4 hours with various concentrations of diluted odorants in a CD293 medium (#11913-019; Thermo Fisher Scientific). The activity of luciferase was normalized to that of Renilla luciferase. Luminescence was measured using a SpectraMax L microplate reader (Molecular Devices).

[2] = test system: Olfr111; experiment: Luciferase assay in Hana3A cells transfected with Olfr111; type: cell-based, mouse; conditions: for binding to Olfr1111: furan derivatives; for reactivity with Olfr111 (relative luciferase activity): Hana3A cells
Protocol: as §1

[3] = test system: primary microglia; experiment: ROS / superoxide generation in primary microglia; type: cell-based, mouse; conditions: for ROS generated with 2-PF co-treatment: Sup MOI 5 + 500 μM 2-PF, 2-EF 0, 100, 300, 500 μM; for ROS generation after 2-PF: inhibitor pretreatment, then 2-PF
Protocol: Superoxide concentrations were calculated by measuring the degree ofcytochrome c reduction using a VersaMax microplate reader (Babior et al., 1973). Microglia were cultured in a 96 well plate at a concentration of 1.0×10^5 cells/well, and the microglia were activated by a 10 μM ATP solution containing 2-PF and cytochrome c, or a solution in which Sup is mixed with cytochalasin B (5 μM; #C66762; Sigma Aldrich). The concentration of ROS was measured through a change in light absorption every minute for 25 minutes at 550 nm.
ROS levels were measured using 2′,7′-dichlorodihydrofluorescein diacetate (DCF-DA, #D6883; Sigma Aldrich) by a previously described method with minor modifications (Bae et al., 2001). More specifically, primary microglia were seeded in 24-well plates (5.0×10^5 cells/well) for 24 hours, and then treated with 10 μM DCF-DA at 37° C. for 30 minutes. One plate was treated with 2-PF, and the other one was not. The cells in each well were measured using a flow cytometer (FACS Accuri™ C6; BD Biosciences). MFI was measured as described above.

[4] = test system: primary microglia; experiment: Cytokine ELISA of primary microglia; type: cell-based, mouse; conditions: inhibitor pretreatment, then 2-PF
Protocol: The levels of expression of cytokines Tnf, i16 and I11b secreted from microglia were measured according to the manufacturer's protocols. More specifically, the levels were measured by ELISA 24 hours after treatment with 2-PF or a cell supernatant. The ELISA kit was purchased from BD Biosciences (#DY410 for Tnf; #DY406 for I16; #DY401 for I11b).

[5] = test system: primary microglia; experiment: Western blotting of phosphorylated signaling proteins in primary microglia; type: cell-based, mouse; conditions: inhibitor pre-cultivation, then 2-PF
Protocol: Cells and tissue were prepared using the T-PER® reagent (#78510; Thermo Fisher Scientific) containing protease inhibitors (#04-693-116-001; Roche Molecular Diagnostics) and DMSF (Sigma-Aldrich), and then lysed using a MagNA lyser (Roche Molecular Diagnostics). A total protein extract was quantified by the Bradford assay. The samples were dissolved in 7.5% SDS-PAGE or 4-20% gradient mini-PROTEIN TGX Precast Gels (#456-1064; Bio-Rad Laboratories), and then blotted on nitrocellulose membranes (#10600002; GE Healthcare). Afterward, the membranes were blocked for 1 hour in 5% non-fat dry milk and TBST, 0.1% TWEEN® 20 (#P9416; Sigma-Aldrich), and Tris-buffered saline, and then incubated with primary antibodies at 4° C. overnight. The antibodies were as follows: Olfr110 (36 kDa; 1:1,000; #ab177327; Abcam), anti-rhodopsin (39 kDa; 1:1,000; #MABN15; Millipore), CREB (43 kDa; 1:1,000; #9197; Cell Signaling Technology), phospho-CREB (43 kDa; 1:1,000; #9198; Cell Signaling Technology), ERK (44 kDa; 1:1,000; #sc094; Santa Cruz), phospho-ERK (42, 44 kDa; 1:1,000; #sc-7383; Santa Cruz), phospho-Akt (60 kDa; 1:500; sc-293125; Santa Cruz), phospho-JNK (46, 54 kDa; 1:500; sc-6254; Santa Cruz), phosphor-p38 (38 kDa; 1:1,000; sc-7973; Santa Cruz), and beta-Actin (45 kDa; 1:10,000; #4967; Cell Signaling Technology). In addition, as isotype-matched horseradish peroxidase-conjugated secondary antibodies, anti-rabbit IgG (#711-035-152; Jackson ImmunoResearch) diluted 1:100,000, and anti-mouse IgG (#715-035-150; Jackson ImmunoResearch) diluted 1:40,000 in TBST were used at room temperature for 2 hours. Immunoreactive protein bands were obtained using SuperSignal™ West Pico Chemiluminescent Substrate (#34080; Thermo Fisher Scientific).

[6] = test system: Olfr920, Olfr1417 and Olfr99; conditions: also react with MOCK

SMILES: Cc1ccoc1C [2,3-dimethylfuran]
binding to Olfr110 [1]: do not bind
binding to Olfr1111 [2]: do not bind

SMILES: O=S(=O)(NCCNC/C=C/c1ccc(Br)cc1)c1cccc2cnccc12 [H-89]
Tnf and Il6 cytokine levels after 2-PF [4]: great decrease

SMILES: Nc1ncnc2c1ncn2C1CCCO1 (stereo not drawn) [SQ22536]
Tnf and Il6 cytokine levels after 2-PF [4]: great decrease
CREB and ERK phosphorylation [5]: greatly decreased

SMILES: COc1ccc2c(c1)CC[C@@H]1[C@@H]2CC[C@]2(C)[C@@H](NCCCCCCN3C(=O)C=CC3=O)CC[C@@H]12 [U73122, reference compound]
ROS generation after 2-PF [3]: completely inhibited
Tnf and Il6 cytokine levels after 2-PF [4]: relatively less decrease

SMILES: CCO [ethanol]
reactivity of the other three receptors [6]: non-specific reaction

SMILES: O=C1OC2(c3ccccc31)c1ccc(O)c(O)c1Oc1c2ccc(O)c1O [gallein, reference compound]
ROS generation after 2-PF [3]: similarly inhibited

SMILES: COc1cccc(-c2cc(=O)c3ccccc3o2)c1N [pd98059]
Tnf and Il6 cytokine levels after 2-PF [4]: relatively less decrease
CREB and ERK phosphorylation [5]: greatly decreased

Now from value to compound, other results behind:

mode of action at Olfr110 [1]: competitive inhibitor (antagonist)
2-PF activity on Olfr110 with co-treatment ([1]; 2-PF fixed at 300 μM, 2-EF 1 μM to 10 mM): 2-PF activity decreases
Kd ([1]; 2-PF fixed at 300 μM, 2-EF 1 μM to 10 mM, read-out: Kd (competitive activity against 2-PF)): 120 µM
binding to Olfr110 [1]: do not bind
SMILES: CCc1ccco1 [2-EF, 2-ethylfuran]
binding to Olfr1111 [2]: do not bind
amount of ROS generated by 100 MOI Sup ([3]; 2-EF pretreated at 0, 100, 300, 500 μM): diminished as the 2-EF level increases
ROS generated with 2-PF co-treatment [3]: the higher the concentration of 2-EF added, the lower the concentration of the generated ROS
ROS generated with 2-PF co-treatment ([3]; listed as 2-ethylfuran): reduced

reactivity with Olfr110 (relative luciferase activity) [1]: showed reactivity
SMILES: CCCCc1ccco1 [2-butylfuran]
reactivity with Olfr111 (relative luciferase activity) [2]: showed reactivity

binding to Olfr110 [1]: do not bind
SMILES: CCCCCCCc1ccco1 [2-heptylfuran]
binding to Olfr1111 [2]: do not bind

reactivity with Olfr110 (relative luciferase activity) [1]: showed reactivity
binding to Olfr110 [1]: do not bind
SMILES: CCCCCCc1ccco1 [2-hexylfuran]
reactivity with Olfr111 (relative luciferase activity) [2]: showed reactivity
binding to Olfr1111 [2]: do not bind

binding to Olfr110 [1]: do not bind
SMILES: Cc1ccco1 [2-methylfuran]
binding to Olfr1111 [2]: do not bind

reactivity with Olfr110 (relative luciferase activity) [1]: showed reactivity
SMILES: CCCc1ccco1 [2-propylfuran]
reactivity with Olfr111 (relative luciferase activity) [2]: showed reactivity

reactivity with Olfr110 (relative luciferase activity) [1]: showed reactivity
SMILES: CC(C)(C)c1ccco1 [2-t-butylfuran]
reactivity with Olfr111 (relative luciferase activity) [2]: showed reactivity
